Laboratory results: the NIST ThermoML archive (doi:10.1021/je050162g)

Experiment: xn = mol fraction of the nth substance listed
Settings: 101 kPa, Liquid; for viscosity: Capillary tube (Ostwald / Ubbelohde) method; for excess molar volume: Direct dilatometry; for speed of sound: Linear variable-path acoustic interferometer

C=COC(C)=O [vinyl acetate] + Cc1ccc(C)cc1
Settings | excess molar volume, 303.15 K [m3/mol] | excess molar volume, 308.15 K [m3/mol] | excess molar volume, 313.15 K [m3/mol] | speed of sound, 303.15 K [m/s] | speed of sound, 308.15 K [m/s] | speed of sound, 313.15 K [m/s] | viscosity, 303.15 K [mPa·s] | viscosity, 308.15 K [mPa·s] | viscosity, 313.15 K [mPa·s]
x2 = 0 | 0 | 0 | 0 | 1095.9 | 1072.5 | 1055.7 | 0.384 | 0.361 | 0.332
x2 = 0.0767 | -4.3e-08 | 2e-08 | 4.2e-08 | 1108.1 | 1084.9 | 1067.7 | 0.4 | 0.367 | 0.333
x2 = 0.1577 | -6.8e-08 | 3.8e-08 | 7.2e-08 | 1122.6 | 1098.2 | 1080.6 | 0.415 | 0.376 | 0.341
x2 = 0.2421 | -7.3e-08 | 5.7e-08 | 9.8e-08 | 1138.8 | 1112.3 | 1094.7 | 0.428 | 0.387 | 0.352
x2 = 0.3332 | -7.2e-08 | 7.3e-08 | 1.21e-07 | 1156.6 | 1128 | 1110.6 | 0.44 | 0.399 | 0.365
x2 = 0.43 | -6.1e-08 | 8.9e-08 | 1.41e-07 | 1175.5 | 1145.6 | 1128.6 | 0.453 | 0.414 | 0.38
x2 = 0.5319 | -5.1e-08 | 9.6e-08 | 1.48e-07 | 1195.4 | 1165.3 | 1148.8 | 0.469 | 0.432 | 0.399
x2 = 0.6371 | -2.7e-08 | 9.2e-08 | 1.4e-07 | 1215.8 | 1187.3 | 1171 | 0.489 | 0.453 | 0.422
x2 = 0.7488 | -4e-09 | 7.6e-08 | 1.13e-07 | 1237.4 | 1211.9 | 1196.4 | 0.512 | 0.478 | 0.447
x2 = 0.8654 | 6e-09 | 4.4e-08 | 7.2e-08 | 1259.7 | 1238.6 | 1224.5 | 0.538 | 0.504 | 0.475
